These results are taken from US4421768A, “Fluorinated diamino-heptene and-heptyne derivatives” (Merrell Toraude et Compagnie, priority 1982, dated 1983).

Structures are written as SMILES. Counter-ions that a name gives are not always drawn. Like-named read-outs stand apart in the source and are kept apart here.

The target of the experiment is T1, Ornithine decarboxylase (ODC) (Rattus norvegicus, UniProt P09057).
T1 construct: prepared from the livers of rats which have been injected with thioacetamide; from tissue; host or cells: liver of thioacetamide-injected rats, purified about ten fold by acid treatment at pH 4.6
T1 sequence (P09057 1-461): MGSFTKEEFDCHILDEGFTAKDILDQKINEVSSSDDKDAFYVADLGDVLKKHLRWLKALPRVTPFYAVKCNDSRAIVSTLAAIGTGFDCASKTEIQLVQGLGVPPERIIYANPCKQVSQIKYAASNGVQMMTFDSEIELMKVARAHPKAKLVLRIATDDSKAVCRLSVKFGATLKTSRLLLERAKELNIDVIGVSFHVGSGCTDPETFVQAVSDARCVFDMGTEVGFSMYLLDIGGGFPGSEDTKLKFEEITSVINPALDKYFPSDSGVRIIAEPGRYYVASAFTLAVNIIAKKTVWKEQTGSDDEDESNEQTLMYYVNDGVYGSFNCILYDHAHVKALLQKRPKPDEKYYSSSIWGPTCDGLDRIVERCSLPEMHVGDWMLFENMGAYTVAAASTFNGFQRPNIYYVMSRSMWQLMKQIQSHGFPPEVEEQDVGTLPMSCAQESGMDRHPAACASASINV
The experiment can be described thus: In vitro inhibition of ornithine decarboxylase (ODC) prepared from livers of thioacetamide-injected rats (time-dependent inactivation, 14CO2 release). The experiment is classed as biochemical. The procedure:
Ornithine decarboxylase (ODC) is prepared from the livers of rats which have been injected with thioacetamide (150 mg/kg of body weight) 18 hrs before sacrifice, and is purified about ten fold by acid treatment at pH 4.6 as described by Ono et al (Biochem. Biophys. Acta 284, 285 (1972)). The stock solution of ODC is comprised of protein (16 mg/mL), sodium phosphate buffer (30 mM, pH 7.1), dithiothreitol (5 mM) and pyridoxal phosphate (0.1 mM). The specific activity of this stock solution is 0.12 nmol of CO2 /min per mg of protein. For a typical experiment 320 μl of this stock solution are mixed at time 0 with 80 μl of a solution of the inhibitor in water and incubated at 37°. At different times 50 μl aliquots are transferred into a 1-mL assay medium containing sodium phosphate (30 mM, pH 7.1), dithiothreitol (5 mM), pyridoxal phosphate (0.1 mM), L-ornithine (0.081 μmol), and DL-[1-^14 C] ornithine (0.043 μmol, 58 Ci/mol, Amersham) in a closed vessel in which a filter paper moistered with 50 μl hyamine hydroxide (1 M) is fitted. The reaction is allowed to proceed for 60 min at 37° C. and then terminated by addition of 0.5 ml of 40% trichloroacetic acid. After an additional 30 min the CO2 absorbed on the filter paper is counted in a standard scintillation cocktail, KI (apparent dissociation constant) and .tau.50 (half-life, at infinite concentration of inhibitor are calculated according to the method of Kitz and Wilson (J. Biol. Chem., 237, 3245 (1962)).
When tested according to the above-described procedure, the compounds of Examples I and 2 gave the results shown below. Half-life (t1/2) at 10 μM is also set forth below.

`C#CC(N)CCC(N)C(F)F` (stereo not shown) [Example 2, 1,1-DIFLUORO-2,5-DIAMINO-6-HEPTYNE, DIHYDROCHLORIDE] showed a Ki of 1500 µM.

In the case of `C#CC(N)CCC(N)CF.Cl.Cl` (stereo not shown) [Example 1, 1-FLUORO-2,5-DIAMINO-6-HEPTYNE DIHYDROCHLORIDE], the Ki (rat liver ODC, 37°, pH 7.1, calculated by method of Kitz and Wilson, read-out: KI (apparent dissociation constant)) was 50 µM. Further, the “T50 (.tau.50, half-life at infinite concentration of inhibitor)” value (rat liver ODC, 37°, pH 7.1, infinite concentration of inhibitor, method of Kitz and Wilson) stood at 3.7 min. In addition, the “t1/2 (half-life at 10 μM)” value (rat liver ODC, 37°, pH 7.1, inhibitor 10 μM) turned out to be 22 min.
